This is an account of results in patent US20170280722A1, “COMPOSITIONS AND METHODS FOR CONTROL OF SAND FLIES AND OTHER BLOOD SUCKING INSECTS” (GENESIS LABORATORIES, INC., priority 2010, published 2017).

This test deals with adult sand flies (P. argentipes). Kind of test: Adult sand fly bioassay on cattle given oral fipronil. Format: in vivo. On the procedure: The test substance was given to the cattle orally as a single application. The oral treatment was by hand. Because the oral treatment was delivered in capsule form the dosage was very precise.
The four dose levels of fipronil for the treatment groups used in this study were as follows: 0.5, 1.0, 2.0 and 4.0 mg/kg. These were weighed with an analytical balance to the nearest 0.01 g and presented in gelatin capsules.
A breeding colony of P. argentipes was established during 2009 and is situated in Patna. The colony contains an average of 10,000 sand flies. Adults and larvae are used routinely for studies and are maintained under controlled temperature and humidity conditions.
Adult sand flies used in this study were transferred to a mud plastered hut built next to the cattle shed. This was to acclimate lab-ready sand flies to natural environmental conditions in which the study was to be conducted. The sand flies were kept in 0.4 m^3 cloth mesh enclosures.
Adult sand fly bioassays were conducted on days 1, 3, 5, 7, 14, 21, and 28 after oral administration of fipronil. […] Sand flies were counted and placed in a sand fly feeding capsule (10 cm diameter×2 cm deep). […]
Two sand fly feeding capsules were used per cow. […] Sand flies were allowed to feed for 60 minutes and were monitored closely throughout the feeding period. […]

On to `N#Cc1nn(-c2c(Cl)cc(C(F)(F)F)cc2Cl)c(N)c1[S+]([O-])C(F)(F)F` (centres unmarked) [fipronil], for which, for the setting “cattle, oral, without having an impact on milk residues”, the “Level of control of adult sand flies as a systemic” value is “high levels of control were not attainable”. For the setting “days 14 and 21 post-treatment, one hour exposure to cattle, 0.5-4.0 mg/kg”, the “Adult sand fly mortality versus dose level” value was “mortality increased with dose level”.
